Data reported in US20250059164A1, “IRAK DEGRADERS AND USES THEREOF” (Kymera Therapeutics, Inc., priority 2023, published 2025).

Assays:
IRAK4 = target: T1, IRAK4 (Homo sapiens, UniProt Q9NWZ3); experiment: IRAK4 MSD degradation in OCI-LY10; type: cell-based; conditions: OCI-LY10 cells, 24 hrs, Meso Scale Discovery
T1 construct: endogenous in cells; host or cells: OCI-LY10
T1 sequence (Q9NWZ3 1-460): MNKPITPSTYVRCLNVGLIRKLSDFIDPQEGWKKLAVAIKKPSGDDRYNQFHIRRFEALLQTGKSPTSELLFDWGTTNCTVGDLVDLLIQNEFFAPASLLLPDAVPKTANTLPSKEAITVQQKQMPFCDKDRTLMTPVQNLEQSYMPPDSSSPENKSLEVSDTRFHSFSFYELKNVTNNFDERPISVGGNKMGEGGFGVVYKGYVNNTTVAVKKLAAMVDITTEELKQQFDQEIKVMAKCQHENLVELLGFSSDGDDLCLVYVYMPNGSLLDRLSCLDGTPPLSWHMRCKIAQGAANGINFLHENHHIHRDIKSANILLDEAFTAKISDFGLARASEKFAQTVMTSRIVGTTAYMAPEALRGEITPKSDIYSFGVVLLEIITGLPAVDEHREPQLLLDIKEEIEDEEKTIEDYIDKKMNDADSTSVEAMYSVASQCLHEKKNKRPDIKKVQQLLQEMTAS
Method in brief: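 OCI-LY10 cells treated 4 to 24 hours at 37° C. with 8-dose 1:3 series, top 1 to 10 μM. IRAK4 in lysates quantified by MSD sandwich immunoassay (mouse capture, rabbit detection, SULFO-TAG anti-rabbit). DC50 from three-parameter logistic fit.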

[1] = Rodent pharmacokinetics (rat PK); type: in vivo; conditions: po, dosed intravenously or orally by gavage, plasma, read-out: F % (bioavailability)
Procedure: All studies related to handling, care, and treatment of rats in the study were performed according to the guidelines approved by the Institutional Animal Care and Use Committee (IACUC). All rats had access to food and water ad libitum. Rats were dosed intravenously or orally by gavage. Whole blood was collected from the jugular vein immediately prior to dosing and at 5 (intravenously administered drugs only), 15, and 30 min and 1, 2, 4, 8, and 24 h after drug administration. After sampling, whole blood was centrifuged at 4,000×g for 5 min at 4° C. to obtain plasma.
The letter codes for bioavailability (F %) include: A (≥5%) and B (≤5%).

| SMILES | DC50 (IRAK4) [nM] | bioavailability [1] [%] |
| --- | --- | --- |
| CN(C[C@H]1CC[C@H](c2cn3cc(NC(=O)c4cncc(C(F)(F)F)n4)ccc3n2)CC1)[C@@H]1CCN(c2cccc3c2n(C)c(=O)n3C2CCC(=O)NC2=O)C[C@H]1F (single isomer, unassigned) [I-293] | 10 to 100 | ≤ 5 |
| CN(C[C@H]1CC[C@H](c2nc3cc(C(C)(C)O)c(NC(=O)c4cncc(C(F)(F)F)n4)cc3o2)CC1)[C@@H]1CCN(c2cccc3c2n(C)c(=O)n3C2CCC(=O)NC2=O)C[C@H]1F (single isomer, unassigned) [I-297] | 10 to 100 | ≥ 5 |
| Cn1c(=O)n(C2CCC(=O)NC2=O)c2cccc(C#CCN3CCN(C[C@H]4CC[C@H](n5cc(NC(=O)c6cnn7ccc(N8C[C@H]9C[C@@H]8CO9)nc67)c(C(F)F)n5)CC4)C[C@H]3C(F)(F)F)c21 (single isomer, unassigned) [I-304] | 10 to 100 | ≥ 5 |
| Cc1nn(C2CCC(=O)NC2=O)c2cccc([C@@H]3CCN(C[C@H]4CC[C@H](n5cc6cc(NC(=O)c7cncc(C(F)(F)F)n7)ncc6n5)CC4)C[C@H]3F)c12 (single isomer, unassigned) [I-340] | 10 to 100 | ≥ 5 |
| Cn1c(=O)n(C2CCC(=O)NC2=O)c2ccc(F)c([C@H]3CCN(C[C@H]4CC[C@H](n5cc6cc(NC(=O)c7cncc(C(F)(F)F)n7)ccc6n5)CC4)C[C@@H]3F)c21 (single isomer, unassigned) [I-353] | 10 to 100 | ≥ 5 |
| O=C1CCC(n2c(=O)oc3c([C@H]4CCN(C[C@H]5CC[C@H](n6cc7cc(NC(=O)c8cncc(C(F)(F)F)n8)ccc7n6)CC5)C[C@@H]4F)cccc32)C(=O)N1 (single isomer, unassigned) [I-360] | > 200 | ≤ 5 |
| Cc1nn(C2CCC(=O)NC2=O)c2cccc([C@@H]3CCN(C[C@H]4CC[C@H](n5cc6cc(NC(=O)c7cncc(C(F)(F)F)n7)ccc6n5)CC4)CC3(F)F)c12 (single isomer, unassigned) [I-371] | 10 to 100 | ≥ 5 |
| Cc1nn(C2CCC(=O)NC2=O)c2cccc([C@H]3CCN(C[C@H]4CC[C@H](n5cc6cc(NC(=O)c7cncc(C(F)(F)F)n7)ccc6n5)CC4)CC3(F)F)c12 (single isomer, unassigned) [I-372] | 10 to 100 | ≥ 5 |
| Cn1c(=O)n(C2CCC(=O)NC2=O)c2cccc([C@H]3CCN(C[C@H]4CC[C@H](n5cc6cc(NC(=O)c7cncc(C#N)c7)c(C(C)(C)O)cc6n5)CC4)CC3(F)F)c21 (single isomer, unassigned) [I-390] | < 10 | ≤ 5 |
| COc1ccc2c(c1[C@@H]1CCN(C[C@H]3CC[C@H](n4cc5cc(NC(=O)c6cncc(C(F)(F)F)n6)ccc5n4)CC3)CC1(F)F)n(C)c(=O)n2C1CCC(=O)NC1=O (single isomer, unassigned) [I-391] | < 10 | ≥ 5 |
| COc1ccc2c(c1[C@H]1CCN(C[C@H]3CC[C@H](n4cc5cc(NC(=O)c6cncc(C(F)(F)F)n6)ccc5n4)CC3)CC1(F)F)n(C)c(=O)n2C1CCC(=O)NC1=O (single isomer, unassigned) [I-392] | < 10 | ≥ 5 |
| Cn1c(=O)n(C2CCC(=O)NC2=O)c2cccc([C@@H]3CCN(C[C@H]4CC[C@H](n5cc6cc(NC(=O)c7cccc(C(F)(F)F)n7)c(N7CCN(C8CC8)CC7)cc6n5)CC4)C[C@H]3F)c21 (some centres unmarked) [I-107] | 10 to 100 | ≤ 5 |
| Cn1c(=O)n(C2CCC(=O)NC2=O)c2cccc(C#CCOC[C@H]3CC[C@H](n4cc(NC(=O)c5cnn6ccc(N7C[C@H]8C[C@@H]7CO8)nc56)c(C(F)F)n4)CC3)c21 (some centres unmarked) [I-108] | 10 to 100 | ≥ 5 |

Second part, the compound after the results:

| DC50 (IRAK4) [nM] | bioavailability [1] [%] | SMILES |
| --- | --- | --- |
| < 10 | ≥ 5 | CN(C[C@H]1CC[C@H](n2cc(NC(=O)c3cnn4cccnc34)c(C(F)F)n2)CC1)[C@H]1CCN(c2cccc3c2n(C)c(=O)n3C2CCC(=O)NC2=O)C[C@@H]1F (single isomer, unassigned) [I-280] |
| < 10 | ≥ 5 | CN(C[C@H]1CC[C@H](n2cc(NC(=O)c3cnn4cccnc34)c(C(F)F)n2)CC1)[C@@H]1CCN(c2cccc3c2n(C)c(=O)n3C2CCC(=O)NC2=O)C[C@@H]1F (single isomer, unassigned) [I-281] |
| < 10 | ≤ 5 | CN(C[C@H]1CC[C@H](c2cn3cc(NC(=O)c4cncc(C(F)(F)F)n4)ccc3n2)CC1)[C@H]1CCN(c2cccc3c2n(C)c(=O)n3C2CCC(=O)NC2=O)C[C@@H]1F (single isomer, unassigned) [I-294] |
| < 10 | ≤ 5 | COc1cn2nc([C@H]3CC[C@H](CN(C)[C@@H]4CCN(c5cccc6c5n(C)c(=O)n6C5CCC(=O)NC5=O)C[C@@H]4F)CC3)cc2cc1NC(=O)c1cncc(C(F)(F)F)n1 (single isomer, unassigned) [I-302] |
| < 10 | ≥ 5 | CN(C[C@H]1CC[C@H](c2nc3cc(C(C)(C)O)c(NC(=O)c4cncc(C(F)(F)F)n4)cc3s2)CC1)[C@@H]1CCN(c2cccc3c2n(C)c(=O)n3C2CCC(=O)NC2=O)C[C@@H]1F (single isomer, unassigned) [I-309] |
| < 10 | ≥ 5 | Cn1c(=O)n(C2CCC(=O)NC2=O)c2cccc(N3CCN(C[C@H]4CC[C@H](n5cc6cc(NC(=O)c7cncc(C(F)(F)F)n7)ccc6n5)CC4)C[C@@H]3C(F)(F)F)c21 (single isomer, unassigned) [I-313] |
| < 10 | ≤ 5 | COc1cc2nc([C@H]3CC[C@H](CN(C)[C@@H]4CCN(c5cccc6c5n(C)c(=O)n6C5CCC(=O)NC5=O)C[C@@H]4F)CC3)cn2cc1NC(=O)c1cncc(C(F)(F)F)n1 (single isomer, unassigned) [I-319] |
| < 10 | ≤ 5 | Cn1c(=O)n(C2CCC(=O)NC2=O)c2cccc([C@@H]3CCN(C[C@H]4CC[C@H](n5cc(NC(=O)c6cnn7ccc(N8C[C@H]9C[C@@H]8CO9)nc67)c(C(F)F)n5)CC4)C[C@H]3F)c21 (single isomer, unassigned) [I-329] |
| < 10 | ≤ 5 | Cn1c(=O)n(C2CCC(=O)NC2=O)c2cccc([C@H]3CCN(C[C@H]4CC[C@H](n5cc(NC(=O)c6cnn7ccc(N8C[C@H]9C[C@@H]8CO9)nc67)c(C(F)F)n5)CC4)C[C@@H]3F)c21 (single isomer, unassigned) [I-330] |
| < 10 | ≤ 5 | Cn1c(=O)n(C2CCC(=O)NC2=O)c2cccc([C@@H]3CCN(C[C@H]4CC[C@H](n5cc(NC(=O)c6cnn7ccc(N8C[C@H]9C[C@@H]8CO9)nc67)c(C(F)F)n5)CC4)CC3(F)F)c21 (single isomer, unassigned) [I-331] |
| < 10 | ≤ 5 | Cn1c(=O)n(C2CCC(=O)NC2=O)c2cccc([C@H]3CCN(C[C@H]4CC[C@H](n5cc(NC(=O)c6cnn7ccc(N8C[C@H]9C[C@@H]8CO9)nc67)c(C(F)F)n5)CC4)CC3(F)F)c21 (single isomer, unassigned) [I-332] |
| < 10 | ≥ 5 | Cn1c(=O)n(C2CCC(=O)NC2=O)c2ccc(F)c([C@@H]3CCN(C[C@H]4CC[C@H](n5cc6cc(NC(=O)c7cncc(C(F)(F)F)n7)ccc6n5)CC4)C[C@H]3F)c21 (single isomer, unassigned) [I-348] |
| < 10 | ≤ 5 | O=C1CCC(n2c(=O)oc3c([C@@H]4CCN(C[C@H]5CC[C@H](n6cc7cc(NC(=O)c8cncc(C(F)(F)F)n8)ccc7n6)CC5)C[C@H]4F)cccc32)C(=O)N1 (single isomer, unassigned) [I-357] |
| < 10 | ≥ 5 | Cn1nc(C2CCC(=O)NC2=O)c2cccc([C@@H]3CCN(C[C@H]4CC[C@H](n5cc6cc(NC(=O)c7cncc(C#N)c7)c(C(C)(C)O)cc6n5)CC4)C[C@H]3F)c21 (single isomer, unassigned) [I-362] |
| < 10 | ≥ 5 | Cn1nc(C2CCC(=O)NC2=O)c2cccc([C@H]3CCN(C[C@H]4CC[C@H](n5cc6cc(NC(=O)c7cncc(C#N)c7)c(C(C)(C)O)cc6n5)CC4)C[C@@H]3F)c21 (single isomer, unassigned) [I-363] |
| < 10 | ≥ 5 | Cn1nc(C2CCC(=O)NC2=O)c2cccc([C@@H]3CCN(C[C@H]4CC[C@H](n5cc6cc(NC(=O)c7cncc(C(F)(F)F)n7)ncc6n5)CC4)C[C@H]3F)c21 (single isomer, unassigned) [I-370] |
| < 10 | ≤ 5 | Cn1c(=O)n(C2CCC(=O)NC2=O)c2ccc(F)c([C@H]3CCN(C[C@H]4CC[C@H](n5cc6cc(NC(=O)c7cncc(C#N)c7)c(C(C)(C)O)cc6n5)CC4)CC3(F)F)c21 (single isomer, unassigned) [I-383] |
| < 10 | ≤ 5 | Cn1c(=O)n(C2CCC(=O)NC2=O)c2cccc([C@@H]3CCN(C[C@H]4CC[C@H](n5cc6cc(NC(=O)c7cncc(C#N)c7)c(C(C)(C)O)cc6n5)CC4)CC3(F)F)c21 (single isomer, unassigned) [I-389] |
